Experimental data published in PubChem BioAssay (NCI).
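Compound exposure: 48 hours, 5 concentrations, 96-well plates. TGI: concentration producing complete growth inhibition.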

Legend:
Test in all cases: NCI anticancer screen, dose series, 48 h
K-562 leukemia = system: K-562 leukemia
U251 CNS = system: U251 CNS
OVCAR-4 ovarian = system: OVCAR-4 ovarian
RPMI-8226 leukemia = system: RPMI-8226 leukemia
UACC-257 melanoma = system: UACC-257 melanoma
HOP-62 NSCLC = system: HOP-62 NSCLC
UACC-62 melanoma = system: UACC-62 melanoma
SR leukemia = system: SR leukemia
NCI-H460 lung = system: NCI-H460 lung
EKVX NSCLC = system: EKVX NSCLC
ACHN renal = system: ACHN renal
HCT-116 colon = system: HCT-116 colon
HOP-92 NSCLC = system: HOP-92 NSCLC
HCC-2998 colon = system: HCC-2998 colon
SN12C renal = system: SN12C renal
NCI-H23 lung = system: NCI-H23 lung
MOLT-4 leukemia = system: MOLT-4 leukemia
MALME-3M melanoma = system: MALME-3M melanoma
OVCAR-5 ovarian = system: OVCAR-5 ovarian
PC-3 prostate = system: PC-3 prostate

C#CCCCCC#Cc1ccccc1C(=O)OC
TGI (K-562 leukemia): 67.4 µM
TGI (U251 CNS): > 100 µM
TGI (OVCAR-4 ovarian): > 100 µM
TGI (RPMI-8226 leukemia): 41.5 µM
TGI (UACC-257 melanoma): > 100 µM
TGI (HOP-62 NSCLC): > 100 µM
TGI (UACC-62 melanoma): 94.7 µM
TGI (SR leukemia): 29.2 µM
TGI (NCI-H460 lung): > 100 µM
TGI (EKVX NSCLC): > 100 µM
TGI (ACHN renal): > 100 µM
TGI (HCT-116 colon): 23 µM
TGI (HOP-92 NSCLC): 86 µM
TGI (HCC-2998 colon): > 100 µM
TGI (SN12C renal): > 100 µM
TGI (NCI-H23 lung): > 100 µM
TGI (MOLT-4 leukemia): 38.3 µM
TGI (MALME-3M melanoma): > 100 µM
TGI (OVCAR-5 ovarian): > 100 µM

C=CCN1C(=O)/C(=C/c2ccccc2)N=C1SC1OC(COC(=O)c2ccccc2)C(OC(=O)c2ccccc2)C1OC(=O)c1ccccc1 (stereo unspecified)
TGI (K-562 leukemia): > 100 µM
TGI (U251 CNS): > 100 µM
TGI (OVCAR-4 ovarian): > 100 µM
TGI (RPMI-8226 leukemia): 87.9 µM
TGI (UACC-257 melanoma): > 100 µM
TGI (HOP-62 NSCLC): > 100 µM
TGI (UACC-62 melanoma): > 100 µM
TGI (SR leukemia): > 100 µM
TGI (PC-3 prostate): > 100 µM
TGI (NCI-H460 lung): > 100 µM
TGI (EKVX NSCLC): > 100 µM
TGI (ACHN renal): > 100 µM
TGI (HOP-92 NSCLC): > 100 µM
TGI (HCC-2998 colon): > 100 µM
TGI (NCI-H23 lung): > 100 µM
TGI (MOLT-4 leukemia): > 100 µM
TGI (MALME-3M melanoma): > 100 µM
TGI (OVCAR-5 ovarian): > 100 µM

O=C(O)CC/C(=N\Nc1nsc2ccccc12)c1ccccc1
TGI (K-562 leukemia): > 100 µM
TGI (U251 CNS): > 100 µM
TGI (OVCAR-4 ovarian): > 100 µM
TGI (RPMI-8226 leukemia): 49.6 µM
TGI (UACC-257 melanoma): > 100 µM
TGI (HOP-62 NSCLC): > 100 µM
TGI (UACC-62 melanoma): > 100 µM
TGI (SR leukemia): 93.3 µM
TGI (NCI-H460 lung): > 100 µM
TGI (EKVX NSCLC): > 100 µM
TGI (ACHN renal): > 100 µM
TGI (HCT-116 colon): > 100 µM
TGI (HOP-92 NSCLC): > 100 µM
TGI (HCC-2998 colon): 90.8 µM
TGI (SN12C renal): > 100 µM
TGI (NCI-H23 lung): 95.8 µM
TGI (MOLT-4 leukemia): 91.6 µM
TGI (OVCAR-5 ovarian): > 100 µM

CCN1c2ccccc2-n2c(C)nnc2-c2c1n[nH]c2-c1ccccc1
TGI (K-562 leukemia): 26 µM
TGI (U251 CNS): 46.8 µM
TGI (OVCAR-4 ovarian): > 100 µM
TGI (RPMI-8226 leukemia): 82.3 µM
TGI (UACC-257 melanoma): > 100 µM
TGI (UACC-62 melanoma): 98.9 µM
TGI (SR leukemia): 59.2 µM
TGI (PC-3 prostate): 96.5 µM
TGI (NCI-H460 lung): > 100 µM
TGI (EKVX NSCLC): > 100 µM
TGI (ACHN renal): > 100 µM
TGI (HCT-116 colon): > 100 µM
TGI (HOP-92 NSCLC): > 100 µM
TGI (SN12C renal): 81.6 µM
TGI (NCI-H23 lung): > 100 µM
TGI (MOLT-4 leukemia): 50.7 µM
TGI (OVCAR-5 ovarian): > 100 µM

COC(=O)C1C(C(=O)OC)N(Cc2ccccc2)C(=O)N1Cc1ccccc1 (stereo unspecified)
TGI (K-562 leukemia): > 100 µM
TGI (U251 CNS): > 100 µM
TGI (OVCAR-4 ovarian): > 100 µM
TGI (RPMI-8226 leukemia): > 100 µM
TGI (UACC-257 melanoma): > 100 µM
TGI (HOP-62 NSCLC): > 100 µM
TGI (UACC-62 melanoma): > 100 µM
TGI (PC-3 prostate): > 100 µM
TGI (NCI-H460 lung): > 100 µM
TGI (EKVX NSCLC): > 100 µM
TGI (ACHN renal): > 100 µM
TGI (HCT-116 colon): > 100 µM
TGI (HOP-92 NSCLC): > 100 µM
TGI (HCC-2998 colon): > 100 µM
TGI (SN12C renal): > 100 µM
TGI (NCI-H23 lung): > 100 µM
TGI (MOLT-4 leukemia): > 100 µM
TGI (MALME-3M melanoma): > 100 µM
TGI (OVCAR-5 ovarian): > 100 µM
